The results in this text go back to patent publication US11059808B2, “Substituted phenylpyrrolecarboxamides with therapeutic activity in HIV” (New York Blood Center, Inc., priority 2014, dated 2021).

In data set [1] the test system is TZM-bl cells. Kind of data set: Cytotoxicity in TZM-bl cells (XTT). The data set is classed as cell-based. As to conditions: for CC50: XTT, 3 days. As to the method:
The cytotoxicity of test compounds in TZM-bl cells was also measured by the XTT method described previously^7. […] The soluble intracellular formazan was quantitated colorimetrically at 450 nm 4 h later. The percent of cytotoxicity and the CC50 values were calculated as above. (See Table 4)
A general note: Formazan colour is commonly taken as a measure of viable cells.

Data set [2] relates to HIV-1 pseudovirus pseudotyped with HXB2 Env. Nature of the data set: microbe, parasite or virus in culture. The data set is classed as cell-based. The following applies: single cycle assay, TZM-bl cells infected with HIV-1 pseudovirus pseudotyped with HXB2 Env.
Setting [3] is: Human immunodeficiency virus 1, HXB2, TZM-bl.

Bounds are passed on as bounds.
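Wherever IC50 is given: endpoint is IC50 for inhibition of pseudovirus infection of TZM-bl cells.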

The CC50 is the concentration that lowers cell viability or growth by half. Broadly, the IC50 is the midpoint of a concentration-inhibition curve. A high value points to weaker potency. On to `Cc1nc(C(NC(=O)c2ccc(-c3ccc(Cl)c(F)c3)[nH]2)C2CCCCN2)sc1CO` (single isomer, unassigned) [Compound 21], for which half-maximal cytotoxicity in data set [1] (CC50) was put at 17.4 ± 1.6 µM. In data set [2], this compound gave an IC50 of 3.2 ± 0.5 µM.
In turn, `Cc1ccc(-c2ccc(C(=O)NC(c3nc(C)c(CO)s3)C3CCCCN3)[nH]2)cc1F` (single isomer, unassigned) [Compound 23] showed a CC50 in data set [1] of at least 36 µM. Also, the IC50 in data set [2] amounted to 3.8 ± 0.3 µM.
In turn, `Cc1ccc(-c2ccc(C(=O)NC(c3nc(C)c(CCO)s3)C3CCCCN3)[nH]2)cc1F` (single isomer, unassigned) [Compound 25] showed a 50% cytotoxic concentration (CC50) in data set [1] of 15.3 ± 0.2 µM. In data set [2], this compound came in with an IC50 of 6.3 ± 0.3 µM.
`Cc1nc(C(NC(=O)c2ccc(-c3ccc(Cl)c(F)c3)[nH]2)C2CCCCN2)sc1CCO` (single isomer, unassigned) [Compound 27] registered a CC50 in data set [1] of 15.1 ± 0.2 µM. Further, it took 8 ± 0.1 µM to reach half-maximal inhibition in data set [2] (IC50).
As to `Cc1nc(C(NC(=O)c2ccc(-c3ccc(Cl)cc3)[nH]2)C2CCCCN2)sc1CCO` (single isomer, unassigned) [Compound 29], the midpoint of cytotoxicity in data set [1], the CC50, lay at 15.4 ± 0.3 µM. In data set [2], this compound had a half-maximal inhibitory concentration (IC50) of 5.9 ± 0.2 µM.
The corresponding values for `Cc1nc(C(NC(=O)c2ccc(-c3ccc(Cl)cc3)[nH]2)C2CCCCN2)[nH]c1CO` (single isomer, unassigned) [Compound 34] are 34 ± 0.1 µM and 16 ± 0.1 µM.
`Cc1nc(C(NC(=O)c2ccc(-c3ccc(Cl)c(F)c3)[nH]2)C2CCCCN2)[nH]c1CO` (single isomer, unassigned) [Compound 36]: the CC50 in data set [1] was 31.5 ± 0.2 µM. Also, inhibition in data set [2] was half-maximal at 16.2 ± 0.2 µM (IC50).
As for `Cc1ccc(-c2ccc(C(=O)NC(c3nc(C)c(CO)[nH]3)C3CCCCN3)[nH]2)cc1F` (single isomer, unassigned) [Compound 38], it took 34 ± 0.2 µM to reach half-maximal cytotoxicity in data set [1] (CC50). The compound further yielded a half-inhibitory concentration (IC50) in data set [2] of 17 ± 0.2 µM.
In data set [1], `Cc1nc(C(CN)NC(=O)c2ccc(-c3ccc(Cl)cc3)[nH]2)sc1CO` (single isomer, unassigned) [Compound 40] displayed a cytotoxic concentration (CC50) of around 40 µM.
Still for that read-out and setting: the value for `Cc1nc(C(CN)NC(=O)c2ccc(-c3ccc(Cl)c(F)c3)[nH]2)sc1CO` (single isomer, unassigned) [Compound 42] was at least 33 µM.
In turn, `Cc1ccc(-c2ccc(C(=O)NC(CN)c3nc(C)c(CO)s3)[nH]2)cc1F` (single isomer, unassigned) [Compound 44] registered a 50% cytotoxic concentration (CC50) in data set [1] of at least 34 µM. For the same compound, the half-maximal inhibitory concentration (IC50) in data set [2] came out at 1.1 ± 0.1 µM.
Compound `Cc1nc(C(CNC(=N)N)NC(=O)c2ccc(-c3ccc(Cl)cc3)[nH]2)sc1CO` (single isomer, unassigned) [Compound 46] had a cytotoxic concentration (CC50) in data set [1] above 37 µM. The compound also gave an IC50 in data set [2] of at least 20 µM.
On to `Cc1nc(C(CNC(=N)N)NC(=O)c2ccc(-c3ccc(Cl)c(F)c3)[nH]2)sc1CO` (single isomer, unassigned) [Compound 47], for which the CC50 in data set [1] was above 36 µM. In data set [2], this compound returned a concentration for half-maximal inhibition (IC50) of at least 20 µM.
Take `Cc1ccc(-c2ccc(C(=O)NC(CNC(=N)N)c3nc(C)c(CO)s3)[nH]2)cc1F` (single isomer, unassigned) [Compound 50]: the CC50 in data set [1] was above 37 µM. In addition, the IC50 in data set [2] was above 20 µM.
Take `Cc1nc(C(CN)NC(=O)c2ccc(-c3ccc(Cl)c(F)c3)[nH]2)sc1CO` (single isomer, unassigned) [Compound 52]: the CC50 in data set [1] was 50.5 ± 1.3 µM.
In data set [1], `CNCC(NC(=O)c1ccc(-c2ccc(C)c(F)c2)[nH]1)c1nc(C)c(CO)s1` (single isomer, unassigned) [Compound 55] showed a CC50 of around 40 µM.
For the compound `CNCC(NC(=O)c1ccc(-c2ccc(Cl)c(F)c2)[nH]1)c1nc(C)c(CO)s1` (single isomer, unassigned) [Compound 57], the CC50 in data set [1] was around 20 µM. The compound further registered an IC50 in data set [2] of around 0.6 µM.
As for `CNCC(NC(=O)c1ccc(-c2ccc(Cl)cc2)[nH]1)c1nc(C)c(CO)s1` (single isomer, unassigned) [Compound 59], in data set [1], the cytotoxic concentration (CC50) is around 22 µM.
`CC(=O)NCC(NC(=O)c1ccc(-c2ccc(Cl)c(F)c2)[nH]1)c1nc(C)c(CO)s1` (single isomer, unassigned) [Compound 60]: the CC50 in data set [1] was above 44 µM.
Turning to `CC(=O)NCC(NC(=O)c1ccc(-c2ccc(Cl)c(F)c2)[nH]1)c1nc(C)c(CO)s1` (single isomer, unassigned) [Compound 61], the CC50 in data set [1] is above 44 µM.
In data set [1], `Cc1nc(C(CN(C)C)NC(=O)c2ccc(-c3ccc(Cl)cc3)[nH]2)sc1CO` (single isomer, unassigned) [Compound 63] gave a CC50 of around 30 µM.
In the case of `Cc1ccc(-c2ccc(C(=O)NC(CN(C)C)c3nc(C)c(CO)s3)[nH]2)cc1F` (single isomer, unassigned) [Compound 65], the half-maximal cytotoxic concentration (CC50) in data set [1] is above 40 µM. The same compound came in with an IC50 in data set [2] of 6.3 ± 1.8 µM.
The like results for `Cc1nc(C(CN(C)C)NC(=O)c2ccc(-c3ccc(Cl)c(F)c3)[nH]2)sc1CO` (single isomer, unassigned) [Compound 68] were, in that order, around 29 µM and 7.2 ± 3 µM.
In data set [1], `Cc1cc(-c2ccc(Cl)cc2)[nH]c1C(=O)NC(CN)c1nc(C)c(CO)s1` (single isomer, unassigned) [Compound 69] returned a CC50 of 27.2 ± 0.8 µM.
In data set [1], `Cc1cc(-c2ccc(Cl)cc2)[nH]c1C(=O)NC(CN)c1nc(C)c(CO)s1` (single isomer, unassigned) [Compound 70] gave a CC50 of 26.4 ± 0.7 µM. This compound yielded a 50% inhibitory concentration (IC50) in data set [2] of 1.1 ± 0.3 µM.
In data set [1], `Cc1ccc(-c2ccc(C(=O)NC(CCN(C)C)c3nc(C)c(CO)s3)[nH]2)cc1F` (single isomer, unassigned) [Compound 73] gave a half-maximal cytotoxic concentration (CC50) of 37.1 ± 5.7 µM. Also, half-maximal inhibition in data set [2] (IC50) required 6.6 ± 0.2 µM.
Take `Cc1nc(C(CCN(C)C)NC(=O)c2ccc(-c3ccc(Cl)c(F)c3)[nH]2)sc1CO` (single isomer, unassigned) [Compound 75]: the half-maximal cytotoxic concentration (CC50) in data set [1] came to 21.3 ± 0.6 µM. In addition, the midpoint of inhibition in data set [2], the IC50, lay at 1.5 ± 0.3 µM.
With `Cc1nc(C(CCN(C)C)NC(=O)c2ccc(-c3ccc(Cl)cc3)[nH]2)sc1CO` (single isomer, unassigned) [Compound 77], the CC50 in data set [1] was found to be 40.2 ± 3 µM. Also, inhibition in data set [2] was half-maximal at 10.4 ± 2 µM (IC50).
Compound `CNCCC(NC(=O)c1ccc(-c2ccc(C)c(F)c2)[nH]1)c1nc(C)c(CO)s1` (single isomer, unassigned) [Compound 79] came in with a 50% cytotoxic concentration (CC50) in data set [1] of 38.9 ± 2.1 µM. This compound returned an IC50 in data set [2] of 1.6 ± 0.4 µM.
Regarding `CNCCC(NC(=O)c1ccc(-c2ccc(Cl)c(F)c2)[nH]1)c1nc(C)c(CO)s1` (single isomer, unassigned) [Compound 81], the half-maximal cytotoxic concentration (CC50) in data set [1] was 22 ± 0.6 µM. In data set [2], the IC50 is 1.5 ± 0.4 µM.
Turning to `CNCCC(NC(=O)c1ccc(-c2ccc(Cl)cc2)[nH]1)c1nc(C)c(CO)s1` (single isomer, unassigned) [Compound 83], the 50% cytotoxic concentration (CC50) in data set [1] stood at 23 ± 0.6 µM. In data set [2], this compound returned an IC50 of 1.7 ± 0.2 µM.
The corresponding values for `Cc1ccc(-c2ccc(C(=O)NC(CCN)c3nc(C)c(CO)s3)[nH]2)cc1F` (single isomer, unassigned) [Compound 85] are 43.8 ± 1.6 µM and 4.2 ± 1.7 µM.
The compound `Cc1nc(C(CCN)NC(=O)c2ccc(-c3ccc(Cl)c(F)c3)[nH]2)sc1CO` (single isomer, unassigned) [Compound 87] displayed a 50% cytotoxic concentration (CC50) in data set [1] of 35 ± 3 µM. In data set [2], half-maximal inhibition (IC50) was put at 6.6 ± 2 µM.
The corresponding values for `Cc1nc(C(CCN)NC(=O)c2ccc(-c3ccc(Cl)cc3)[nH]2)sc1CO` (single isomer, unassigned) [Compound 89] are 41 ± 1 µM and 4 ± 0.3 µM.
As for `Cc1nc(C(CN)NC(=O)c2ccc(-c3ccc(Cl)cc3)n2C)sc1CO` (single isomer, unassigned) [Compound 91], the half-maximal cytotoxic concentration (CC50) in data set [1] worked out at 35.8 ± 0.3 µM. This compound registered an IC50 in data set [2] (setting [3]) of 26 ± 1.4 µM.
Turning to `Cc1nc(C(CN)NC(=O)c2ccc(-c3ccc(Cl)cc3)n2C)sc1CO` (single isomer, unassigned) [Compound 92], the CC50 in data set [1] stood at 36.7 ± 0.4 µM. In data set [2], this compound had an IC50 of 25.8 ± 1.1 µM.
`Cc1nc(C(CN)NC(=O)c2cnc(-c3ccc(Cl)cc3)[nH]2)sc1CO` (single isomer, unassigned) [Compound 94]: the CC50 in data set [1] is above 51 µM.
In data set [1], `Cc1nc(C(CN)NC(=O)c2ncc(-c3ccc(Cl)cc3)[nH]2)sc1CO` (single isomer, unassigned) [Compound 96] returned a CC50 above 51 µM. For the same compound, the 50% inhibitory concentration (IC50) in data set [2] is around 51 µM.
For `Cc1cc(C(=O)NC(CN)c2nc(C)c(CO)s2)[nH]c1-c1ccc(Cl)cc1` (single isomer, unassigned) [Compound 98], in data set [1], the cytotoxic concentration (CC50) worked out at 22.2 ± 0.3 µM.
For the compound `Cc1ccc(-c2ccc(C(=O)NC(CN)c3ncc(CO)s3)[nH]2)cc1F` (single isomer, unassigned) [Compound 100], in data set [1], the CC50 is 39.2 ± 0.8 µM.
For `NCC(NC(=O)c1ccc(-c2ccc(Cl)c(F)c2)[nH]1)c1ncc(CO)s1` (single isomer, unassigned) [Compound 102], the half-maximal cytotoxic concentration (CC50) in data set [1] was determined as 31.8 ± 0.4 µM. Moreover, the concentration for half-maximal inhibition (IC50) in data set [2] is 0.77 ± 0.04 µM.
With `NCC(NC(=O)c1ccc(-c2ccc(Cl)cc2)[nH]1)c1ncc(CO)s1` (single isomer, unassigned) [Compound 103], in data set [1], the cytotoxic concentration (CC50) came to 37.1 ± 0.3 µM. For the same compound, in data set [2] (setting [3]), the concentration for half-maximal inhibition (IC50) was 0.75 ± 0.2 µM.
The compound `COc1cc(C(=O)NC(CN)c2nc(C)c(CO)s2)[nH]c1-c1ccc(Cl)cc1` (single isomer, unassigned) [Compound 106] returned a cytotoxic concentration (CC50) in data set [1] of 22.2 ± 2.5 µM. The compound also had an IC50 in data set [2] of 12.4 ± 2.5 µM.
In data set [1], `Cc1nc(C(CNC(C)C)NC(=O)c2ccc(-c3ccc(Cl)cc3)[nH]2)sc1CO` (single isomer, unassigned) [Compound 107] showed a cytotoxic concentration (CC50) of 28.5 ± 3.5 µM. This compound also had an IC50 in data set [2] (setting [3]) of 4.2 ± 0.3 µM.
On to `Cc1nc(C(CN)NC(=O)c2ccc(-c3ccc(Cl)cc3)[nH]2)sc1CN` (single isomer, unassigned) [Compound 108], for which the CC50 in data set [1] was found to be 14.6 ± 0.2 µM. The compound also had an IC50 in data set [2] (setting [3]) of 12.1 ± 0.5 µM.
`Cc1nc(C(CN)NC(=O)c2ccc(-c3ccc(F)c(F)c3)[nH]2)sc1CO` (single isomer, unassigned) [Compound 122] displayed a CC50 in data set [1] above 51 µM. Also, in data set [1] (printed "(30%)" without explanation, presumably toxicity at 51 μM), the “percentage in brackets after CC50 >51” value is given as 30%.
As for `CNc1cc(NC(=O)c2ccc(-c3ccc(F)c(Cl)c3)[nH]2)nc(NC(=N)N)n1` [Compound 53], the CC50 in data set [1] is at least 36 µM.
